Where “and” joins values, the source holds several entries; their conditions need not be identical. Equal values may be shown once.
What was measured:
[1] = tested on: cutaneous trunci muscle reflex (CTMR); assay: Noxious pinprick test of the cutaneous trunci muscle reflex after subcutaneous injection; format: in vivo; settings: rat; for time of complete recovery (CRT): s.c. 0.6 ml, mean ± SE, n=8
Description: Subcutaneous Injection The animal experimental protocol was approved by the Animal Committee of Mackay Memorial Hospital in Taipei, Taiwan. Male Sprague-Dawley rats were purchased from BioLasco (Taipei, Taiwan) and kept in an air-conditioned animal shelter at room temperature of 22° C. to 24° C. with controlled level of humidity (40% to 50%) in a 12-hour light-dark cycle. […] The rats were randomly assigned to treatments with a size of 8 rats per group. All rats were briefly anesthetized by inhalation of 2% isoflurane (Abbott Laboratories, North Chicago, Ill.). The back of each rat was carefully shaved with a razor and was left with no injuries. After the induction of inhalation anesthesia, the drugs were injected subcutaneously in the thoracolumbar region. The injections caused a circular elevation of the skin, creating a wheal of approximately 2 cm in diameter. This wheal was marked within a minute after the injection.
Neurobehavioral Examination Before the experiments were conducted, the animals were handled daily for up to 14 days to familiarize them with the behavioral investigator, the experimental environment, and the specific experimental protocols. A noxious pinprick test was used to measure the analgesic effect of the cutaneous trunci muscle reflex (CTMR), which is characterized by reflex movements of the skin over the back produced by twitches of the lateral thoracispinal muscles in response to local dorsal cutaneous stimulations. The von Frey filament (26.0 g) was affixed to an 18-gauge needle to standardize the stimulus intensity and to test the neurobehavioral examination. Six pinpricks were applied in the marked areas every 15 minutes after each drug administration until the rats were fully recovered from the block. Six pinpricks per test were sufficient enough to obtain reproducible results in rats among different study groups, while avoiding injury of the skin during repeated testing. […] The total absence of CTMR response was defined as a complete blockade with 100% of maximum possible effect (MPE). Three CTMR pinprick responses indicated a 50% of MPE, while 0% of observed MPE would show the presence of all six CTMR pinprick responses. The complete recovery time (CRT) is defined as the time period when the presence of all six pinprick responses returned with 0% of MPE. All CTMR responses observed in rats were under stable vital signs. To determine skin irritation (such as necrosis, swelling and inflammation), assessment in any macroscopic changes of the skin color and texture was further studied. Systemic side effects such as sedation, agitation, and respiratory distress were also evaluated. The observer was not informed about the drugs used.
Statistical Analysis The statistical difference between the treatment groups was tested by using Mann-Whitney Rank Sum Test to evaluate the analgesic degree of MPE. Microcal Origin version 7 (Microcal Software, Northampton, Mass.) and SigmaStat (Systat Software, Inc., Chicago, Ill.) were used to calculate the values of MPE, creating figures and analyzing statistics. A p value of less than 0.05 was defined significant. All data are presented as mean±SE.

subcutaneous tissue = settings: rat, in vivo, sc
Description: Histology To determine the toxicity of the present composition to the subcutaneous tissue, skin was excised from the injected area of anesthetized rats two days later. The skin cross-section samples were fixed in 4% paraformaldehyde overnight and stained with hematoxylin and eosin.
Tissue inflammation was evaluated by the level of lymphocytic infiltrations in the cinnamaldehyde-injected subcutaneous layer of rats' cross-sectioned skin at 48 h.

skin = settings: rat, in vivo, sc
Description: Neurobehavioral Examination Before the experiments were conducted, the animals were handled daily for up to 14 days to familiarize them with the behavioral investigator, the experimental environment, and the specific experimental protocols. A noxious pinprick test was used to measure the analgesic effect of the cutaneous trunci muscle reflex (CTMR), which is characterized by reflex movements of the skin over the back produced by twitches of the lateral thoracispinal muscles in response to local dorsal cutaneous stimulations. […] Three CTMR pinprick responses indicated a 50% of MPE, while 0% of observed MPE would show the presence of all six CTMR pinprick responses. The complete recovery time (CRT) is defined as the time period when the presence of all six pinprick responses returned with 0% of MPE. […] To determine skin irritation (such as necrosis, swelling and inflammation), assessment in any macroscopic changes of the skin color and texture was further studied. Systemic side effects such as sedation, agitation, and respiratory distress were also evaluated. The observer was not informed about the drugs used.

[2] = cinnamaldehyde 0.5% alone, or given 10 min before lidocaine 0.5% / bupivacaine 0.0625%
[3] = cinnamaldehyde 1% alone, or given 10 min before lidocaine 0.5% / bupivacaine 0.0625%
[4] = cinnamaldehyde 2% alone, or given 10 min before lidocaine 0.5% / bupivacaine 0.0625%

Structure (SMILES) | time of complete recovery (CRT) ([1]; cinnamaldehyde 0% (vehicle): lidocaine 0.5% or bupivacaine 0.0625% alone) | time of complete recovery (CRT) [1, 2] | time of complete recovery (CRT) [1, 3] | time of complete recovery (CRT) [1, 4] | duration of complete nociceptive block ([1]; s.c., bupivacaine 0.0625% alone) | complete nociceptive block to pinpricks ([1]; s.c., cinnamaldehyde 0.5%, 1%, 2% followed 10 min later by bupivacaine 0.0625%) | duration of complete nociceptive block to pinpricks ([1]; s.c., 2% cinnamaldehyde followed 10 min later by 0.5% lidocaine) | analgesic effect, dose dependence ([1]; s.c., cinnamaldehyde 0.5%, 1%, 2% followed by 0.5% lidocaine) | lymphocytic infiltration (tissue inflammation) in subcutaneous layer (subcutaneous tissue) | skin irritation (skin) | analgesic effect, dose dependence ([1]; s.c., cinnamaldehyde alone at 0.5%, 1% and 2%)
CCCCN1CCCCC1C(=O)Nc1c(C)cccc1C (centres unmarked) [Bupivacaine, 1-butyl-N-(2,6-dimethylphenyl)piperidine-2-carboxamide] | 91.88 ± 4.43 min and 91.88 min | 78.75 min | 116.25 ± 4.70 min and 116.25 min | 159.38 ± 6.30 min and 159.38 min | approximately 45 minutes | increased |  |  |  |  | 
CCN(CC)CC(=O)Nc1c(C)cccc1C [Lidocaine, 2-(diethylamino)-N-(2,6-dimethylphenyl)acetamide] |  | 65.63 ± 2.74 min and 65.63 min | 106.88 ± 3.40 min and 106.88 min | 157.50 ± 5.67 min and 157.50 min |  |  | about 15 minutes | Dose dependent analgesic effect |  |  | 
O=CC=Cc1ccccc1 [Cinnamaldehyde, cinnamaldehyde] |  | 43.13 ± 5.97 min and 43.13 min | 63.75 ± 4.70 min and 63.75 min | 95.63 ± 3.95 min and 95.63 min |  |  |  |  | More lymphocytic infiltrations | neither obvious change of skin color nor injury was observed | dose-dependent analgesic effect

Reference: patent US20130172387A1, “METHOD AND COMPOSITION FOR PROLONGING ANALGESIC EFFECT OF LOCAL ANESTHETIC” (priority 2011, published 2013)
